Values joined by “and” are separate entries in the source; they are usually repeats but may differ in a detail not shown here. Equal values may be shown once.
Key:
MDCK cells = assay: MTT cytotoxicity assay on MDCK cells; type: cell-based, canine; settings: Canis lupus familiaris, 100 μmol/L, 24 h, mean ± SD of three replicates, read-out: Growth Inhibition Rate (%)
Experimental: First, we used the MTT method to perform cytotoxicity of barbatic acid derivatives (1, 6a–6p′) on MDCK cells at the concentration of 100 μmol/L, and the results are shown in Table 1.
The MTT assay was used to evaluate the cytotoxicity of the target compounds on DMCK cells. Logarithmic-growth-phase DMCK cells were seeded in a 96-well plate (10^4 cells/well) and incubated in a cell culture incubator for 24 h. The culture medium was then removed and replaced with a drug-containing medium for the treatment groups (1, 6a–6p′, 100 μmol/L), normal saline for the control group, or hydrochlorothiazide (100 μmol/L) for the positive control group. Each well was treated with 100 µL of the respective solution and incubated for an additional 24 h. The culture medium was then removed and replaced with a DMEM solution containing 20 µL of MTT (5 mg/mL). After incubating for 4 h, the liquid in each well was removed and replaced with 150 µL of DMSO, which was shaken for 10 min to ensure thorough mixing. The absorbance at 490 nm was measured to determine the optical density (OD) of each well. Cell growth inhibition rate (%) = (ODBlank − ODExperimental)/ODBlank × 100%.

[1] = test system: Na^+ transport, MDCK cells; assay: In vitro diuretic activity: Na^+ transport inhibition, Transwell chamber seeded with MDCK cells; type: cell-based, canine; settings: for inhibition at 100 µM: Canis lupus familiaris, MDCK, read-out: Transport Inhibition Rate (%) Na^+; for inhibition at 100 µM / Transport Inhibition Rate (%) Na^+: 100 μmol/L, MDCK cells in Transwell, mean ± SD of three replicates, negative = promotion
From the text: (§1) The traditional methods for screening diuretic drugs are mostly in vivo experiments with mice, which have a long experimental cycle and are not suitable for screening massive compounds. As we know, the generation and excretion of urine involve two processes: glomerular filtration and tubular reabsorption. Reabsorption refers to the process in which the renal tubular epithelial cells transport water and certain solutes from the tubular fluid (urine) partially or entirely back into the bloodstream. Then, 99% of the water in the original urine filtered by the glomerulus is reabsorbed, and the transport of Na^+ and Cl^− plays an important role in this process. Thiazide and furosemide diuretics exert their diuretic effects by inhibiting the transport of Na^+ and Cl^−, which affects the tubular reabsorption of the original urine. Based on this principle, we established a new type of cell screening model for diuretic active drugs. Madin–Darby canine kidney (MDCK) cells were inoculated into a Transwell chamber to simulate the renal tubules. This cell model could transport and absorb external NaCl, simulating the reabsorption phenomenon. […] The effectiveness of this model was confirmed by the validation of hydrochlorothiazide, which is a commercially available diuretic drug and could inhibit the transport of Na^+ and Cl^− in renal tubules.
(§2) Generally, the transport of Na^+ and Cl^− plays an important role in glomerular filtration and tubular reabsorption. […] For example, inhibition rates of transport of 6a and 6c were over 30%, and had better inhibitory ability than barbatic acid. […] When ethyl, propyl, and benzyl were substituted on R^1, the introduction of any group could not enhance the inhibitory activity of barbatic acid, such as 6h–u and 6j′–6p′.
(§3) Log-phase MDCK cells were seeded in the upper chambers of Transwell plates (4 × 10^4 cells/well), and 800 µL of complete culture medium was added to the lower chambers. After 24 h of incubation at 37 °C, the electrical resistance of the upper chamber cells was measured one by one (R = (Rcell − Rblank) × 0.04π). When the electrical resistance of the upper chamber cells reached ≥300 Ω cm^2, the upper chamber medium was removed and replaced with the drug solution. The blank group (given normal saline), the experimental group (1, 6a–6p′, 100 μmol/L), and the hydrochlorothiazide group (100 μmol/L) were set, and each well was treated with 100 µL of the corresponding solution. The cells were then further incubated for 24 h. After that, the upper and lower chamber fluids were removed, and 200 µL of NaCl solution (15 mg/mL) was added to the upper chamber, while 800 µL of DMEM was added to the lower chamber for continued incubation. At 0.5, 1, 2, and 3 h, 50 µL of the lower chamber fluid was taken and the OD values were measured using Na^+ and Cl^− detection kits. The transport inhibition rate (%) was calculated as follows: transport inhibition rate (%) = (ODblank − ODexperimental)/ODblank × 100%.

[2] = test system: C2O4^2− transport, MDCK cells; assay: In vitro litholytic activity: C2O4^2− transport inhibition, Transwell chamber with MDCK cells; type: cell-based, canine; settings: Canis lupus familiaris; 100 μmol/L, MDCK cells in Transwell; mean ± SD of three replicates; read-out: Transport Inhibition Rate (%) C2O4^2−
Experimental: (§4) On the other hand, all compounds had little inhibitory effect on Ca^2+ transport. The structure–activity relationships (SARs) were also observed. […] On the other hand, the introduction of the benzyl group to the R^1 or R^2 of barbatic acid could not lead to more promising compounds, such as 6a, 6n, 6u, 6b′, and 6i′–p′.
(§5) Logarithmic-phase DMCK cells were inoculated in the upper chamber of a Transwell plate (4 × 10^4 cells/well). Then, 800 µL of complete culture medium was added to the lower chamber, and the cells were incubated for 24 h until they adhered to the wall. The resistance value of the upper chamber cells was measured one by one at 37 °C (R = (Rcell − Rblank) × 0.04π). When the resistance value of the upper chamber cells was ≥300 Ω cm^2, the upper chamber liquid was discarded for drug administration. A control group (given physiological saline) and an experimental group (1, 6a–6p′, 100 μmol/L) were set up, and 100 µL of each drug was administered per well, followed by continued incubation for 24 h. Then, the upper and lower chamber liquids were discarded, and 200 µL of CaC2O4 (30 mmol/L) solution was added to the upper chamber, and 800 µL of PBS solution was added to the lower chamber for continued incubation. At 0.5, 1, 2, and 3 h, 50 µL of the lower chamber liquid was taken and then tested using the Ca^2+ and C2O4^2− detection kits and the following detection methods. The transport inhibition rate (%) = (ODblank − ODexperimental)/ODblank × 100%.

[3] = test system: Ca^2+ transport, MDCK cells; assay: In vitro litholytic activity: Ca^2+ transport inhibition, Transwell chamber with MDCK cells; type: cell-based, canine; settings: Canis lupus familiaris, 100 μmol/L, mean ± SD of three replicates, read-out: Transport Inhibition Rate (%) Ca^2+
Experimental: as §4, §5

[4] = test system: Cl^− transport, MDCK cells; assay: In vitro diuretic activity: Cl^− transport inhibition, Transwell chamber seeded with MDCK cells; type: cell-based, canine; settings: Canis lupus familiaris; 100 μmol/L, MDCK cells in Transwell; mean ± SD of three replicates; negative = promotion; read-out: Transport Inhibition Rate (%) Cl^−
From the text: as §1, §2, §3

SMILES | inhibition at 100 µM (MDCK cells) | inhibition at 100 µM [1] | melting point | inhibition at 100 µM [2] | inhibition at 100 µM [3] | inhibition at 100 µM [4] | Transport Inhibition Rate (%) Na^+ [1] | Na^+ transport inhibition rate at 1, 2, and 3 h ([1]; evaluated at 1, 2, and 3 h (Figure 3))
Cc1cc(OCc2ccccc2)c(C)c(O)c1C(=O)Oc1cc(C)c(C(=O)OC(C)C)c(O)c1C [6m′, 3-hydroxy-4-(isopropoxycarbonyl)-2,5-dimethylphenyl 4-(benzyloxy)-2-hydroxy-3,6-dimethylbenzoate] | < 0% | -0.36 ± 0.4% | 135 to 138 °C | 2.28 ± 1.34% | -2.06 ± 0.09% | -4.93 ± 2.95% | – | –
C=CCOC(=O)c1c(C)cc(OC(=O)c2c(C)cc(OCc3ccccc3)c(C)c2O)c(C)c1O [6n′, allyl 4-(4-(benzyloxy)-2-hydroxy-3,6-dimethylbenzoyloxy)-2-hydroxy-3,6-dimethylbenzoate] | < 0% | -1.85 ± 0.8% | 127 to 130 °C | -29.4 ± 3.89% | 0.1 ± 0.3% | -13 ± 0.15% | – | –
Cc1cc(OCc2ccccc2)c(C)c(O)c1C(=O)Oc1cc(C)c(C(=O)OCC#N)c(O)c1C [6o′, 4-((cyanomethoxy)carbonyl)-3-hydroxy-2,5-dimethylphenyl 4-(benzyloxy)-2-hydroxy-3,6-dimethylbenzoate] | < 0% | -3.28 ± 0.75% | 151 to 155 °C | 2.03 ± 1.07% | -1.82 ± 0.23% | -24 ± 1.5% | – | –
Cc1cc(OCc2ccccc2)c(C)c(O)c1C(=O)Oc1cc(C)c(C(=O)OCc2ccccc2)c(O)c1C [6p′, benzyl 4-(4-(benzyloxy)-2-hydroxy-3,6-dimethylbenzoyloxy)-2-hydroxy-3,6-dimethylbenzoate] | < 0% | 16.3 ± 0.1% | 153 to 157 °C | 7.16 ± 1.56% | -3.34 ± 0.26% | -5.43 ± 0.85% | – | –
COc1cc(C)c(C(=O)Oc2cc(C)c(C(=O)OCc3ccccc3)c(O)c2C)c(O)c1C [Compound 6a, Benzyl 2-hydroxy-4-((2-hydroxy-4-methoxy-3,6-dimethylbenzoyl)oxy)-3,6-dimethylbenzoate] | < 0% | > 30% | 113 to 115 °C | -16.6 ± 0.37% | -7.98 ± 0.17% | 8.76 ± 0.25% | 33.51 ± 5.95% | –
COC(=O)c1c(C)cc(OC(=O)c2c(C)cc(OC)c(C)c2O)c(C)c1O [Compound 6b, 3-hydroxy-4-(methoxycarbonyl)-2,5-dimethylphenyl 2-hydroxy-4-methoxy-3,6-dimethylbenzoate] | < 0% | – | 177 to 180 °C | -4.25 ± 1.08% | -5.14 ± 0.31% | 5.71% | less than 10% and −9.31 ± 7.15% | –
CCOC(=O)c1c(C)cc(OC(=O)c2c(C)cc(OC)c(C)c2O)c(C)c1O [Compound 6c, 4-(ethoxycarbonyl)-3-hydroxy-2,5-dimethylphenyl 2-hydroxy-4-methoxy-3,6-dimethylbenzoate] | < 0% | > 30% | 175 to 178 °C | 1.01 ± 2.03% | -2.3 ± 0.34% | -7.56 ± 0.35% | 47.18 ± 0.80% | above 20%
CCCOC(=O)c1c(C)cc(OC(=O)c2c(C)cc(OC)c(C)c2O)c(C)c1O [Compound 6d, 3-hydroxy-2,5-dimethyl-4-(propoxycarbonyl)phenyl 2-hydroxy-4-methoxy-3,6-dimethylbenzoate] | 3.04 ± 0.3% | 8.04 ± 0.4% | 146 to 149 °C | -6.69 ± 8.67% | -9.93 ± 0.19% | -9.21 ± 0.45% | – | –
COc1cc(C)c(C(=O)Oc2cc(C)c(C(=O)OC(C)C)c(O)c2C)c(O)c1C [Compound 6e, 3-hydroxy-4-(isopropoxycarbonyl)-2,5-dimethylphenyl 2-hydroxy-4-methoxy-3,6-dimethylbenzoate] | < 0% | -0.88 ± 4.35% | 135 to 138 °C | -2.05 ± 3% | -3.66 ± 0.27% | -3.13 ± 0.65% | – | –
C=CCOC(=O)c1c(C)cc(OC(=O)c2c(C)cc(OC)c(C)c2O)c(C)c1O [Compound 6f, allyl 2-hydroxy-4-(2-hydroxy-4-methoxy-3,6-dimethylbenzoyloxy)-3,6-dimethylbenzoate] | < 0% | -0.5 ± 0.1% | 155 to 157 °C | 6.89 ± 1.5% | -3.66 ± 0.25% | -0.61 ± 0.6% | – | –
COc1cc(C)c(C(=O)Oc2cc(C)c(C(=O)OCC#N)c(O)c2C)c(O)c1C [Compound 6g] | 0.12 ± 0.1% | 12.1 ± 1.3% | 184 to 187 °C | -12.6 ± 2.88% | -8.61 ± 0.19% | -27.7 ± 1% | – | –

Source: PMC10222548, “Semisynthesis, Biological Evaluation and Molecular Docking Studies of Barbatic Acid Derivatives as Novel Diuretic Candidates” (Molecules, 2023)
